Experimental data taken from patent publication US9968605B2, “2-(2-methylamino-pyrimidin-4-yl)-1h-indole-5-carboxylic acid [(S)-1-carbamoyl-2-(phenyl-pyrimidin-2-yl-amino)-ethyl]-amide for use in the treatment of pain associated to osteoarthritis” (SANOFI, priority 2014, dated 2018).
Entries after “also recorded” stand apart in the source; their conditions may differ.

Legend:
[1] = test system: patients with knee OA; assay: Clinical trial: WOMAC index scores after a single intra-articular dose in patients with knee OA; type: in vivo, human; conditions: for Total WOMAC score, absolute change from baseline, Estimate / WOMAC subscore for Pain, absolute change from baseline, Estimate / WOMAC subscore for Physical function, absolute change from baseline, Estimate / WOMAC subscore for Stiffness, absolute change from baseline, Estimate: 60 mg single intra-articular dose; for Total WOMAC score, Compound A 60 mg vs Placebo, Estimate / WOMAC subscore for Pain, Compound A 60 mg vs Placebo, Estimate / WOMAC subscore for Physical function, Compound A 60 mg vs Placebo, Estimate / WOMAC subscore for Stiffness, Compound A 60 mg vs Placebo, Estimate: difference in change from baseline; for WOMAC subscore for Stiffness, Effect size (90% CI): vs placebo
Protocol: (§1) The objective of this study was to assess in patients with knee OA, the efficacy, safety and tolerability of a single intra-articular dose of Compound A.
(§2) This was a two-center, double-blind, randomized, placebo controlled, single dose study. Following a review of the safety data up to Day 28 from Part 1 of this study, the second part of the study assessed the efficacy of a single dose of Compound A, selected from the maximum administered/tolerated dose from Part 1 (60 mg), in relieving symptoms of patients with knee OA.
(§3) Screening was performed within 28 days of dosing. Following the single dose of study medication administered via intra-articular injection on Day 1, each patient remained at the Study Unit for 4 hours after dosing and, provided there was no difficulty with tolerability, patients were discharged and returned periodically for outpatient visits. Each patient was followed up to Day 168 (end-of-study visit); therefore the study period was 28 weeks.
Compound A was supplied as a lyophilized cake (to be reconstituted in water for injection for intra-articular administration) in vials containing 20, 40 and 80 mg total of active Compound A. The placebo was commercially available 0.9% saline solution for the injection.
The following sub-scales from the WOMAC Index were used to assess the activity of the drug upon pain, stiffness and physical function. Each item will be rated on the basis of the patient's symptoms over the last 48 h, by means of a 5 point Likert Scale: none, mild, moderate, severe, or very severe.
The primary endpoint was the WOMAC Pain sub-scale at Day 56 for evidence of efficacy (change from baseline).
Inclusion criteria are: • Diagnosis of primary knee osteoarthritis, based upon the following: • X-ray or MRI evidence within the last 6 months for joint space narrowing and osteophyte formation—patients will be Kellgren and Lawrence classification II/III, • Total WOMAC score 24-72 and • Fulfilling the American College of Rheumatology Clinical and Radiographic criteria for OA.
Analysis of Efficacy Variables:
Using the primary analysis efficacy population and for WOMAC sub-score for pain on Day 56, treatment mean differences (Compound A minus placebo) in change from baseline and their one-sided 95% upper limit of the confidence interval were computed using linear fixed effects models with fixed terms for treatment group and sex, and with an unstructured R variance/covariance matrix on treatment group for patient within sex blocks, using SAS Proc Mixed®. In case of convergence problems, other variance-covariance structures were explored.
The signs and symptoms of OA were measured with a standard instrument as WOMAC index.
WOMAC index consists of 24 questions in 3 dimensions subscales: • Pain subcale (5 items) • Stiffness subscale (2 items) • Physical function subscale (17 items)
Each item was rated by means of a 5 point Likert scale: none (=0), mild (=1), moderate (=2), severe (=3) and very severe (=4) A total WOMAC score and a WOMAC subscore for each dimension was calculated.
A supportive analysis to the primary analysis was conducted over patients from the efficacy population and with at least one post-dose WOMAC sub-score measurement, using a last observations carried forward (LOCF) approach up to Day 56.
The total WOMAC score and WOMAC sub-score for stiffness and physical function were analysed in the same way as for the primary analysis of WOMAC sub-score for pain.
The treatment mean difference between groups with their one-sided 95% upper limit of the CI was estimated for all other days for all scores. Time profile plots of treatment mean differences with their one-sided 95% upper limit of the CI were provided.
For each WOMAC score (total and sub-scores), the effect size based on the estimated (within the fixed effects model frameworks) mean treatment difference in change from baseline between groups (active versus placebo) were provided at each day with their corresponding 95% CI.

[2] = test system: patients with knee OA; assay: Clinical trial: safety and tolerability of a single intra-articular dose in patients with knee OA; type: in vivo
Protocol: as §1, §2, §3
Safety was assessed by adverse event (AE) monitoring, standard clinical laboratory evaluations, physical examination, vital sign and electrocardiogram (ECG) assessments, local tolerability at site of injection and assessments of the knee joint (effusion/worsening of effusion).
The safety analysis was based on the review of descriptive statistics and individual data for AEs, clinical laboratory, vital signs, and ECG parameters. Adverse events were coded according to the Medical Dictionary for Regulatory Activities (version 15.1) and the numbers of subjects with treatment-emergent AEs (TEAEs) were tabulated (counts and percents). For clinical laboratory, vital signs, and ECG data, the analyses of abnormalities were based on the definitions of potentially clinically significant abnormalities (PCSAs; definitions according to version 2.0 dated 14 Sep. 2009). Local tolerance/tolerability at the site of injection was summarized by descriptive statistics.

[3] = test system: patients with knee OA; assay: Clinical trial: WOMAC index scores after a single intra-articular dose in patients with knee OA; type: in vivo, human; conditions: Day 56; vs placebo; efficacy population (all patients); negative = positive effect of drug
[4] = Day 56, efficacy population (all patients)
[5] = Day 56, patients with effusion at baseline

CNc1nccc(-c2cc3cc(C(=O)N[C@@H](CN(c4ccccc4)c4ncccn4)C(N)=O)ccc3[nH]2)n1 [Compound A, 2-(2-methylamino-pyrimidin-4-yl)-1H-indole-5-carboxylic acid [(S)-1-carbamoyl-2-(phenyl-pyrimidin-2-yl-amino)-ethyl]-amide]
Total WOMAC score, absolute change from baseline, Estimate [1, 4]: −10.5566
WOMAC subscore for Pain, absolute change from baseline, Estimate [1, 4]: −1.8229
WOMAC subscore for Physical function, absolute change from baseline, Estimate [1, 4]: −7.7966
WOMAC subscore for Stiffness, absolute change from baseline, Estimate [1, 4]: −0.9406
Total WOMAC score, absolute change from baseline, Estimate [1, 5]: −17.0761
WOMAC subscore for Pain, absolute change from baseline, Estimate [1, 5]: −2.9701
WOMAC subscore for Physical function, absolute change from baseline, Estimate [1, 5]: −12.9658
WOMAC subscore for Stiffness, absolute change from baseline, Estimate [1, 5]: −1.1672
effect sizes for WOMAC subscores ([1]; Day 56, all patients, negative indicates a positive effect of drug against placebo): 0.12 to −0.04
Total WOMAC score, Compound A 60 mg vs Placebo, Estimate [1, 4]: 1.0495
WOMAC subscore for Pain, Compound A 60 mg vs Placebo, Estimate [1, 4]: 0.4554
WOMAC subscore for Physical function, Compound A 60 mg vs Placebo, Estimate [1, 4]: 0.6854
WOMAC subscore for Stiffness, Compound A 60 mg vs Placebo, Estimate [1, 4]: −0.0573
Total WOMAC score, Compound A 60 mg vs Placebo, Estimate [1, 5]: −9.3562
WOMAC subscore for Pain, Compound A 60 mg vs Placebo, Estimate [1, 5]: −1.7213
WOMAC subscore for Physical function, Compound A 60 mg vs Placebo, Estimate [1, 5]: −6.8188
WOMAC subscore for Stiffness, Compound A 60 mg vs Placebo, Estimate [1, 5]: −0.9028
effect on WOMAC Pain subscores, other WOMAC subscores or Total score ([1]; Day 56, efficacy population (all patients), 60 mg): neither a clinically significant nor a statistically significant effect
WOMAC subscore for Stiffness, Effect size (90% CI) ([1]; Day 56, efficacy population (all patients), negative = positive effect of drug): −0.04
WOMAC subscore for Stiffness, Effect size (90% CI) [1, 5]: −0.71
efficacy on pain in patients with knee osteoarthritis and effusion (WOMAC assessment) ([1]; subgroup of patients with effusion at baseline): significant efficacy; also recorded: significant effect
reported TEAEs and their severity, including local reactions at the injection site, vs placebo (0.9% saline) ([2]; 60 mg single intra-articular dose): no difference between Compound A and placebo
tolerability of single doses ([2]; 60 mg single intra-articular dose, patients with knee OA): well tolerated
most frequent TEAE ([2]; after administration of Compound A or placebo, followed by injection site reactions): Arthralgia
Total WOMAC score, Effect size (90% CI) [3]: 0.06
WOMAC subscore for Pain, Effect size (90% CI) [3]: 0.12
WOMAC subscore for Physical function, Effect size (90% CI) [3]: 0.06
